From patent US4835160A, “Derivatives of pyridoindole, having anti-tumor properties” (Sanofi, priority 1986, dated 1989) come the findings set out here.

One data set in a line: in vivo. More on the design: species or system CDF1 hybrid mice. The settings on record: mouse, ip. The source says:
The compounds of the invention benefit from a good tolerance and a weak toxicity.
Thus the administration, to healthy CDF1 hybrid mice, in a single injection by intraperitoneal route, of the compounds under test, has enabled it to be established that the product is perfectly tolerated at a high dosage since the survival rate of the animals of the experiment was 100 out of 100 thirteen days after administration.

In a further data set the test system is reticulosarcoma M5-M5076. Description: Test for reticulosarcoma M5-M5076. In kind it is in vivo, BDF1 hybrid mice. The settings on record: 50 mg/kg IP, D1,5,9,13,17. On the procedure: (§1) The antitumour activity was tested in vivo on various tumours inoculated in various ways according to the following general protocol:
(§2) All the male or female mice are inoculated on day D0 with a known quantity of viable tumour cells for ascitic tumours or with a known tumour fragment for solid tumours.
(§3) They are then distributed into various groups. Each group, corresponding to the animals treated by the product under test, is made up of 10 mice. The product under test is dissolved in distilled water and it is administered n times (Dx-Dy), n, y, and x varying according to the protocol chosen, at the rate of 0.1 ml of solution per 10 g by weight of mice treated and at specific doses for each protocol.
(§4) The "negative control" group, corresponding to the animals which are not treated by the product, contains 2√N animals, N being equal to or greater than the total number of mice treated by the product in the same experiment.
(§5) Finally, the tests can also be carried out at the same time as the study of a group called "positive control", of ten animals, which is treated by a molecule, known for its antitumour activity and which can vary according to the protocol chosen, in the same conditions as the groups treated by the product under test.
(§6) The antitumour activity is evaluated, in the case of ascitic tumours, by considering the increase in the survival time of the animals treated in comparison to that of the animals in the "negative control" group, according to the formula: [formula]
(§7) Also, a product is considered as toxic at the dose studied when this T/C value is equal to or less than 85%. In addition, a product is also considered as toxic at the dose studied when the weight variation, expressed in grams and calculated by the formula: […]
The tests are carried out with BDF1 hybrid mice inoculated by intraperitoneal route with 10^6 cells of the M5-M5076 line. The compound under test is administered 5 times successively in sequence (D1,5,9,13,17) by intraperitoneal route. The positive control for the test is cyclophosphamide administered in the same conditions. The number of surviving animals is evaluated on day D75.

The test system of another data set is leukemia P 388. Description: Test of leukemia P 388; IP/IP, D1-5. The following applies: D1-D5; for Number of survivors: day D30; for T/C %: survival time. Type of data set: in vivo, CDF1 hybrid mice. On the procedure:
(2) In vivo: (GERAN et al., Cancer Chemother., 1972, 2, 07-57):
as §1, §2, §3, §4, §5, §6
The criterion for activity varies according to the protocol.
as §7
"Average weight of the group measured on day 5--Average weight of the same group measured on day 1"
is equal to or less than 4 g.
(a) Test of lelukemia P 388; IP/IP, D1-5 (GERAN et al., Cancer Chemother., 1972, 2, 07-57).
The tests are carried out with CDF1 hybrid mice inoculated by intraperitoneal route with 10^6 leukemia cells from the P 388 line. The compound under test is administered for 5 successive days (D1-D5) by intraperitoneal route. The positive control for the test is 5-fluorouracile which is administered in the same conditions. The number of surviving animals is evaluated on day D30.

A further data set has as its system melanoma B 16. Briefly: Test for melanoma B 16. Type of data set: in vivo, BDF1 hybrid mice. The settings on record: 5 mg/kg IP, D1-D9. On the procedure:
as §1, §2, §3, §4, §5, §6, §7
(d) Test for melanoma B 16 (GERAN et al., Cancer Chemother., 1972, 2, 07-75).
The tests are carried out with BDF1 hybrid mice inoculated by intraperitoneal route with 0.5 ml of a homogenate of melanoma B 16 made up from 1 g of tumour in 10 ml of physiological serum. The compound under test is administered for 9 days (D1-D9) by intraperitoneal route. The positive control for the test is Cis-Platine administered in the same conditions. The number of surviving animals is evaluated on day D60.

Data set [1] concerns leukemia tumour line L 1210. Description: In vitro cytotoxic activity on leukemia tumour line L 1210. The settings on record: Mus musculus, L1210, 48 h, L 1210, 48 hours contact, 37° C.; read-out: I D 50 (concentration which inhibits the proliferation of the cells by 50%). In kind it is cell-based. On the procedure: (1) In vitro: ([…] et al., Chem. Biol. Interaction, 1979, 25, 45-58). The cytotoxic activity of the compounds of the invention has been evaluated by in vitro tests. These tests consist of adding increasing concentrations of the compound under test to a cellular culture of the leukemia tumour line L 1210 in an exponential phase of growth. The cellules are incubated at 37° C. in a CO2 incubator and counted every 24 hours. The calculation of the I D 50 (concentration of the product, expressed in 1^-1 micromole, which inhibits the proliferation of the cells by 50%) is made after 48 hours contact.

`CCN(CC)CCCNc1ncc(C)c2[nH]c3ccccc3c12` [Derivative No. 1, 1-(3-diethylaminopropylamino) 4-methyl-5H-pyrido-[4,3-b]indole] came in with a survival at 312 h in the data set “in vivo” (100 mg/kg) of 100%. The “Median day of survival” value in the data set on reticulosarcoma M5-M5076 worked out at 32.7 days; with leukemia P 388 (10 mg/kg IP), 15.7 days; in the data set with leukemia P 388 (50 mg/kg IP) it was 21.0 days. In addition, the “Variation by weight” value with reticulosarcoma M5-M5076 was -0.6 g; in the data set on leukemia P 388 (10 mg/kg IP), -0.9 g; in the data set on leukemia P 388 (50 mg/kg IP), -2.6 g. In addition, the Number of survivors with reticulosarcoma M5-M5076 (day D75), in the data set with leukemia P 388 (10 mg/kg IP) and in the data set on leukemia P 388 (50 mg/kg IP) was 0/10 throughout. The T/C % with reticulosarcoma M5-M5076 (survival time) was 130%; in the data set on leukemia P 388 (10 mg/kg IP), 130%; in the data set on leukemia P 388 (50 mg/kg IP), 174%.
`CCN(CC)CCCNc1ncc(C)c2[nH]c3ccc(OC)cc3c12` [Derivative No. 4, 1-(3-diethylaminopropylamino)-8-methoxy-4-methyl-5H-pyrido[4,3-b]indole] registered a survival at 312 h in “in vivo” (50 mg/kg) of 100%. Also, the “Median day of survival” value in the data set on melanoma B 16 came to 29.0 days; in the data set with leukemia P 388 (5 mg/kg IP), 14.0 days; in the data set with leukemia P 388 (10 mg/kg IP), 17.0 days; with leukemia P 388 (20 mg/kg IP), 17.25 days; in the data set on leukemia P 388 (40 mg/kg IP) it was 20.3 days; in the data set on leukemia P 388 (80 mg/kg IP), 6.6 days. The “Variation by weight” value is reported as -1.9 g in the data set with melanoma B 16, -0.9 g with leukemia P 388 (20 mg/kg IP), -3.4 g in the data set on leukemia P 388 (40 mg/kg IP) and -4.8 g in the data set on leukemia P 388 (80 mg/kg IP). In addition, the Number of survivors in the data set on melanoma B 16 (day D60), in the data set with leukemia P 388 (5 mg/kg IP), in the data set on leukemia P 388 (10 mg/kg IP), in the data set on leukemia P 388 (20 mg/kg IP), in the data set on leukemia P 388 (40 mg/kg IP) and in the data set on leukemia P 388 (80 mg/kg IP) was 0/10 in each case. For the same compound, the T/C % in the data set on melanoma B 16 (survival time) amounted to 135%; with leukemia P 388 (5 mg/kg IP) it was 121%; with leukemia P 388 (10 mg/kg IP), 147%; in the data set with leukemia P 388 (20 mg/kg IP), 149%; with leukemia P 388 (40 mg/kg IP), 176%; in the data set on leukemia P 388 (80 mg/kg IP), 57%. For the same compound, the “Variation by weight (g)” value with leukemia P 388 (5 mg/kg IP) is on record as “+1.1 g”; in the data set on leukemia P 388 (10 mg/kg IP), “+0.7 g”. Besides, the IC50 in data set [1] was determined as 300 nM.
